According to the supplement of paper PMC4862054:

Tests used:
Conditions in all cases: incubation time: 72 h
Hs578T [1] = assay: normalised response (% of control), CellTox Green; higher = less cell death (100 = DMSO, 0 = benzethonium chloride kill control)
How it was run: (§1)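 Values are normalised signals, each belonging to one concentration of the series. Breast cancer cells (20 µl suspension) were seeded into 384-well plates with compound at 5 concentrations in 10-fold steps over a compound-specific 10,000-fold range and incubated 72 h. Readouts were CellTox Green fluorescence (485/520 nm), then CellTiter-Glo luminescence after 10 min at room temperature, with each plate set to 0.1 % DMSO as 100 and a positive kill control as 0.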

MDA-MB-436 = assay: as above
How it was run: as §1

BT-549 = assay: drug sensitivity score (DSS), CellTox Green (DSS (AUC-based score)); higher = stronger drug effect (viability inhibition or cytotoxicity); extreme values may be limits of the assay
How it was run: (§2)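 Breast cancer cell lines were seeded in 20 µl suspension into 384-well plates already holding compound and incubated for 72 h. Each compound was tested at 5 concentrations in 10-fold steps across its own 10,000-fold range. Plates were normalised to 0.1 % DMSO and a positive kill control after CellTox Green and then CellTiter-Glo readings. The area under the fitted dose-response curve served as the basis for the drug sensitivity score.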

CAL-85-1 = assay: as above
How it was run: as §2

DU-4475 = assay: as above
How it was run: as §2

HCC1599 = assay: as above
How it was run: as §2

Hs578T [2] = assay: as above
How it was run: as §2

MDA-MB-231 = assay: as above
How it was run: as §2

MDA-MB-453 = assay: as above
How it was run: as §2

MDA-MB-468 = assay: as above
How it was run: as §2

MFM-223 = assay: as above
How it was run: as §2

Nc1cccc2c1CN(C1CCC(=O)NC1=O)C2=O (stereo not drawn) [Lenalidomide] (1000 nM)
normalised response (Hs578T [1]): 94.5%
normalised response (MDA-MB-436): 88.4%

Nc1cccc2c1CN(C1CCC(=O)NC1=O)C2=O (stereo not drawn) [Lenalidomide] (10000 nM)
normalised response (Hs578T [1]): 127%
normalised response (MDA-MB-436): 95.5%

C[C@]12O[C@H](C[C@]1(O)CO)n1c3ccccc3c3c4c(c5c6ccccc6n2c5c31)CNC4=O [Lestaurtinib] (100 nM)
normalised response (Hs578T [1]): 96.2%
normalised response (MDA-MB-436): 66.7%

C[C@]12O[C@H](C[C@]1(O)CO)n1c3ccccc3c3c4c(c5c6ccccc6n2c5c31)CNC4=O [Lestaurtinib] (1000 nM)
normalised response (Hs578T [1]): 25.3%
normalised response (MDA-MB-436): 51.6%

O=C1c2c(O)ccc(O)c2C(=O)c2c(NCCNCCO)ccc(NCCNCCO)c21 [Mitoxantrone] (100 nM)
normalised response (Hs578T [1]): 106%
normalised response (MDA-MB-436): 87.8%

O=C1c2c(O)ccc(O)c2C(=O)c2c(NCCNCCO)ccc(NCCNCCO)c21 [Mitoxantrone] (1000 nM)
normalised response (Hs578T [1]): 112%
normalised response (MDA-MB-436): 78%

Nc1ccccc1NC(=O)c1ccc(CNc2nccc(-c3cccnc3)n2)cc1 [Mocetinostat] (1000 nM)
normalised response (Hs578T [1]): 59.8%
normalised response (MDA-MB-436): 66.7%

Nc1ccccc1NC(=O)c1ccc(CNc2nccc(-c3cccnc3)n2)cc1 [Mocetinostat] (10000 nM)
normalised response (Hs578T [1]): 48.6%
normalised response (MDA-MB-436): -9.9%

COc1nc(N)nc2c1ncn2[C@@H]1O[C@H](CO)[C@@H](O)[C@@H]1O [Nelarabine] (1000 nM)
normalised response (Hs578T [1]): 107%
normalised response (MDA-MB-436): 88.7%

COc1nc(N)nc2c1ncn2[C@@H]1O[C@H](CO)[C@@H](O)[C@@H]1O [Nelarabine] (10000 nM)
normalised response (Hs578T [1]): 91.4%
normalised response (MDA-MB-436): 91%

Cc1ccc(Nc2nccc(N(C)c3ccc4c(C)n(C)nc4c3)n2)cc1S(N)(=O)=O [Pazopanib] (1000 nM)
normalised response (Hs578T [1]): 110%
normalised response (MDA-MB-436): 64.8%

Cc1ccc(Nc2nccc(N(C)c3ccc4c(C)n(C)nc4c3)n2)cc1S(N)(=O)=O [Pazopanib] (10000 nM)
normalised response (Hs578T [1]): 77.2%
normalised response (MDA-MB-436): 96.9%

CS(=O)(=O)N1CCN(Cc2cc3nc(-c4cccc5[nH]ncc45)nc(N4CCOCC4)c3s2)CC1 [Pictilisib]
drug sensitivity score (BT-549): 0
drug sensitivity score (CAL-85-1): 3.76
drug sensitivity score (DU-4475): 0
drug sensitivity score (HCC1599): 0
drug sensitivity score (Hs578T [2]): 0
drug sensitivity score (MDA-MB-231): 0
drug sensitivity score (MDA-MB-453): 0
drug sensitivity score (MDA-MB-468): 0
drug sensitivity score (MFM-223): 4.88

O=C(NC[C@H](O)CO)c1ccncc1Nc1ccc(I)cc1F [Pimasertib]
drug sensitivity score (BT-549): 0
drug sensitivity score (CAL-85-1): 6.45
drug sensitivity score (DU-4475): 9.13
drug sensitivity score (HCC1599): 0
drug sensitivity score (Hs578T [2]): 0
drug sensitivity score (MDA-MB-231): 12.2
drug sensitivity score (MDA-MB-453): 0
drug sensitivity score (MDA-MB-468): 0
drug sensitivity score (MFM-223): 0

O=C(CCBr)N1CCN(C(=O)CCBr)CC1 [Pipobroman] (1000 nM)
normalised response (Hs578T [1]): 91.2%
normalised response (MDA-MB-436): 102%

O=C(CCBr)N1CCN(C(=O)CCBr)CC1 [Pipobroman] (10000 nM)
normalised response (Hs578T [1]): 128%
normalised response (MDA-MB-436): 101%

C[C@]12C=CC(=O)C=C1CC[C@@H]1[C@@H]2[C@@H](O)C[C@@]2(C)[C@H]1CC[C@]2(O)C(=O)CO [Prednisolone] (1000 nM)
normalised response (Hs578T [1]): 104%
normalised response (MDA-MB-436): 54.9%

C[C@]12C=CC(=O)C=C1CC[C@@H]1[C@@H]2[C@@H](O)C[C@@]2(C)[C@H]1CC[C@]2(O)C(=O)CO [Prednisolone] (10000 nM)
normalised response (Hs578T [1]): 66.8%
normalised response (MDA-MB-436): 60.2%

CC(C)N(CCCNC(=O)Nc1ccc(C(C)(C)C)cc1)C[C@H]1O[C@@H](n2cc(Br)c3c(N)ncnc32)[C@H](O)[C@@H]1O [SGC0946]
drug sensitivity score (BT-549): 0
drug sensitivity score (CAL-85-1): 0
drug sensitivity score (DU-4475): 0
drug sensitivity score (HCC1599): 0
drug sensitivity score (MDA-MB-231): 0
drug sensitivity score (MDA-MB-453): 0
drug sensitivity score (MDA-MB-468): 0
drug sensitivity score (MFM-223): 0

CNC(=O)c1cc(Oc2ccc(NC(=O)Nc3ccc(Cl)c(C(F)(F)F)c3)cc2)ccn1 [Sorafenib] (100 nM)
normalised response (MDA-MB-436): 105%

CNC(=O)c1cc(Oc2ccc(NC(=O)Nc3ccc(Cl)c(C(F)(F)F)c3)cc2)ccn1 [Sorafenib] (1000 nM)
normalised response (Hs578T [1]): 118%
normalised response (MDA-MB-436): 87.5%

CCN(CC)CCNC(=O)c1c(C)[nH]c(/C=C2\C(=O)Nc3ccc(F)cc32)c1C [Sunitinib] (100 nM)
normalised response (Hs578T [1]): 77%
normalised response (MDA-MB-436): 97.1%

CCN(CC)CCNC(=O)c1c(C)[nH]c(/C=C2\C(=O)Nc3ccc(F)cc32)c1C [Sunitinib] (1000 nM)
normalised response (Hs578T [1]): 95.9%
normalised response (MDA-MB-436): 106%

CC[C@@]1(O)C(=O)OCc2c1cc1n(c2=O)Cc2cc3c(CN(C)C)c(O)ccc3nc2-1 [Topotecan] (100 nM)
normalised response (Hs578T [1]): 98.7%
normalised response (MDA-MB-436): 76.5%

CC[C@@]1(O)C(=O)OCc2c1cc1n(c2=O)Cc2cc3c(CN(C)C)c(O)ccc3nc2-1 [Topotecan] (1000 nM)
normalised response (MDA-MB-436): 71%
